We go through 15 compounds from US20260297081A1, “COMPOUNDS AND METHODS OF TREATING CANCERS” (Cullgen Inc., priority 2023, published 2026).

Assay [1] has as its system Calu-1 cells. Briefly: Anti-proliferation (viability) of NSCLC Calu-1 cells, 3 days (Table 7, FIG. 2B). The assay is classed as cell-based. Particulars: Homo sapiens, 72 h; Calu-1 cells, 3 days, 10-point serial dilution; read-out: GI IC50 in Calu-1. A digest of the protocol: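 Viability is read after treatment with compounds titrated over ten serial dilution points, with exposure lasting three days for the NSCLC line and six days for the breast cancer line.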

In assay [2] the test system is MCF7 cells. Briefly: Anti-proliferation (viability) of MCF7 cells (Table 7, FIG. 2B). It counts as cell-based. Particulars: Homo sapiens, MCF7, MCF7 cells, 3-6 days, 10-point serial dilution; read-out: GI IC50 in MCF-7.

SMILES strings stand for the structures. pIC50: −log10 of the molar value.

One may read the pIC50 as −log10 of the IC50, conventionally taken in molar units. Take `CC(=O)c1c(C)c2cnc(Nc3ccc(N4CCN(CC(=O)NC5CCC(Nc6nc(NC(C)C)ccc6C(=O)Nc6cn(C)c(C7CC7)n6)C5)CC4)cn3)nc2n(C2CCCC2)c1=O` (stereo not drawn) [CPD-284, 2-((3-(2-(4-(6-((6-acetyl-8-cyclopentyl-5-methyl-7-oxo-7,8-dihydropyrido[2,3-d]pyrimidin-2-yl)amino)pyridin-3-yl)piperazin-1-yl)acetamido)cyclopentyl)amino)-N-(2-cyclopropyl-1-methyl-1H-imidazol-4-yl)-6-(isopropylamino)nicotinamide]: the pIC50 in assay [1] was at least 8.00; in assay [2], below 7.00.
On to `CC(=O)c1c(C)c2cnc(Nc3ccc(CN4CCN(CC(=O)N5CCC6(CCC(Nc7nc(NC(C)C)ccc7C(=O)Nc7cc8n(n7)CCC8)C6)C5)CC4)cn3)nc2n(C2CCCC2)c1=O` (stereo not drawn) [CPD-549, 2-((2-(2-(4-((6-((6-acetyl-8-cyclopentyl-5-methyl-7-oxo-7,8-dihydropyrido[2,3-d]pyrimidin-2-yl)amino)pyridin-3-yl)methyl)piperazin-1-yl)acetyl)-2-azaspiro[4.4]nonan-7-yl)amino)-N-(5,6-dihydro-4H-pyrrolo[1,2-b]pyrazol-2-yl)-6-(isopropylamino)nicotinamide], for which the pIC50 is at least 8.00 in assay [1] and above 7.30 in assay [2].
As for `CC(=O)c1c(C)c2cnc(Nc3ccc(N4CCC5(CC4)CC5C(=O)NC4CC5(C4)CC(Nc4nc(NC(C)C)ccc4C(=O)Nc4cn(C)c(C6CC6)n4)C5)cn3)nc2n(C2CCCC2)c1=O` (stereo not drawn) [CPD-457, 6-(6-((6-acetyl-8-cyclopentyl-5-methyl-7-oxo-7,8-dihydropyrido[2,3-d]pyrimidin-2-yl)amino)pyridin-3-yl)-N-(6-((3-((2-cyclopropyl-1-methyl-1H-imidazol-4-yl)carbamoyl)-6-(isopropylamino)pyridin-2-yl)amino)spiro[3.3]heptan-2-yl)-6-azaspiro[2.5]octane-1-carboxamide], the pIC50 in assay [1] is at least 8.00; in assay [2], above 7.30.
Regarding `CC(=O)c1c(C)c2cnc(Nc3ccc(N4CCC(N5CCC[C@H]5C(=O)N5CC6(CC(Nc7nc(NC(C)C)ccc7C(=O)Nc7ccc(N(C)C)nn7)C6)C5)CC4)cn3)nc2n(C2CCCC2)c1=O` [CPD-544, 2-((2-((1-(6-((6-acetyl-8-cyclopentyl-5-methyl-7-oxo-7,8-dihydropyrido[2,3-d]pyrimidin-2-yl)amino)pyridin-3-yl)piperidin-4-yl)-L-prolyl)-2-azaspiro[3.3]heptan-6-yl)amino)-N-(6-(dimethylamino)pyridazin-3-yl)-6-(isopropylamino)nicotinamide], the pIC50 is at least 8.00 in assay [1] and above 7.30 in assay [2].
For `[2H]C([2H])([2H])Nc1ccc(C(=O)Nc2cc(C)n(C)n2)c(N[C@H]2CC[C@H](C(=O)N3CCC(N4CCN(c5ccc(Nc6ncc7c(C)c(C(C)=O)c(=O)n(C8CCCC8)c7n6)nc5)CC4)C3)CC2)n1` (stereo partly drawn) [CPD-477, 2-((4-(3-(4-(6-((6-acetyl-8-cyclopentyl-5-methyl-7-oxo-7,8-dihydropyrido[2,3-d]pyrimidin-2-yl)amino)pyridin-3-yl)piperazin-1-yl)pyrrolidine-1-carbonyl)cyclohexyl)amino)-N-(1,5-dimethyl-1H-pyrazol-3-yl)-6-((methyl-d3)amino)nicotinamide], the negative-log IC50 (pIC50) is 7.30 to 8.00 in assay [1] and below 7.00 in assay [2].
For `CC(=O)c1c(C)c2cnc(Nc3ccc(N4CCN(C5CCN(C(=O)N6CC7(CCC(Nc8nc(NC(C)C)ccc8C(=O)Nc8ccc(N(C)C)nn8)CC7)C6)C5)CC4)cn3)nc2n(C2CCCC2)c1=O` (stereo not drawn) [CPD-555, 2-((2-(3-(4-(6-((6-acetyl-8-cyclopentyl-5-methyl-7-oxo-7,8-dihydropyrido[2,3-d]pyrimidin-2-yl)amino)pyridin-3-yl)piperazin-1-yl)pyrrolidine-1-carbonyl)-2-azaspiro[3.5]nonan-7-yl)amino)-N-(6-(dimethylamino)pyridazin-3-yl)-6-(isopropylamino)nicotinamide], the results for the negative logarithm of the IC50 (pIC50) in assay [1] and in assay [2] were at least 8.00 and 7.00 to 7.30, respectively.
`CC(=O)c1c(C)c2cnc(Nc3ccc(N4CC5(CN(CCC(=O)N6CCC(Nc7nc(NC(C)C)ccc7C(=O)Nc7ccc(N(C)C)nn7)CC6)C5)C4)cn3)nc2n(C2CCCC2)c1=O` [CPD-454, 2-((1-(3-(6-(6-((6-acetyl-8-cyclopentyl-5-methyl-7-oxo-7,8-dihydropyrido[2,3-d]pyrimidin-2-yl)amino)pyridin-3-yl)-2,6-diazaspiro[3.3]heptan-2-yl)propanoyl)piperidin-4-yl)amino)-N-(6-(dimethylamino)pyridazin-3-yl)-6-(isopropylamino)nicotinamide]: the pIC50 was 7.30 to 8.00 in assay [1] and below 7.00 in assay [2].
The like results for `[2H]C([2H])([2H])Nc1ccc(C(=O)Nc2ccc(N(C)C)nn2)c(NC2CC3(C2)CN(C(=O)CCN2CCN(c4ccc(Nc5ncc6c(C)c(C(C)=O)c(=O)n(C7CCCC7)c6n5)nc4)CC2(C)C)C3)n1` [CPD-458, 2-((2-(3-(4-(6-((6-acetyl-8-cyclopentyl-5-methyl-7-oxo-7,8-dihydropyrido[2,3-d]pyrimidin-2-yl)amino)pyridin-3-yl)-2,2-dimethylpiperazin-1-yl)propanoyl)-2-azaspiro[3.3]heptan-6-yl)amino)-N-(6-(dimethylamino)pyridazin-3-yl)-6-((methyl-d3)amino)nicotinamide] were, in that order, at least 8.00 and below 7.00.
Regarding `[2H]C([2H])([2H])Nc1ccc(C(=O)Nc2cccc(C)n2)c(NC2CCN(C(=O)CN3CCN(c4ccc(Nc5ncc6c(C)c(C(C)=O)c(=O)n(C7CCCC7)c6n5)nc4)CC3)CC2)n1` [CPD-270, 2-((1-(2-(4-(6-((6-acetyl-8-cyclopentyl-5-methyl-7-oxo-7,8-dihydropyrido[2,3-d]pyrimidin-2-yl)amino)pyridin-3-yl)piperazin-1-yl)acetyl)piperidin-4-yl)amino)-6-((methyl-d3)amino)-N-(6-methylpyridin-2-yl)nicotinamide], the results for the pIC50 in assay [1] and in assay [2] were at most 7.30 and below 7.00, respectively.
As for `CC(=O)c1c(C)c2cnc(Nc3ccc(CN4CCN(CC(=O)NC5CC(Nc6nc(NC(C)C)ccc6C(=O)Nc6ccc(N(C)C)nn6)C5)CC4)cn3)nc2n(C2CCCC2)c1=O` (stereo not drawn) [CPD-475, 2-((3-(2-(4-((6-((6-acetyl-8-cyclopentyl-5-methyl-7-oxo-7,8-dihydropyrido[2,3-d]pyrimidin-2-yl)amino)pyridin-3-yl)methyl)piperazin-1-yl)acetamido)cyclobutyl)amino)-N-(6-(dimethylamino)pyridazin-3-yl)-6-(isopropylamino)nicotinamide], the values for the negative logarithm of the IC50 (pIC50) in assay [1] and in assay [2] were at least 8.00 and below 7.00, respectively.
In the case of `CC(=O)c1c(C)c2cnc(Nc3ccc(N4CCN(C5CCN(C(=O)[C@H]6CC[C@H](Nc7nc(NC(C)C)ccc7-c7nc8cc(N(C)C)ccc8[nH]7)CC6)C5)CC4)cn3)nc2n(C2CCCC2)c1=O` (relative stereo) [CPD-540, trans-6-acetyl-8-cyclopentyl-2-((5-(4-(1-(4-((3-(5-(dimethylamino)-1H-benzo[d]imidazol-2-yl)-6-(isopropylamino)pyridin-2-yl)amino)cyclohexane-1-carbonyl)pyrrolidin-3-yl)piperazin-1-yl)pyridin-2-yl)amino)-5-methylpyrido[2,3-d]pyrimidin-7(8H)-one], the pIC50 in assay [1] was at most 7.30; in assay [2], below 7.00.
As to `[2H]C([2H])([2H])Nc1ccc(C(=O)Nc2cn(C)c(C3CC3)n2)c(NC2CC(CNC(=O)CN3CCN(c4ccc(Nc5ncc6c(C)c(C(C)=O)c(=O)n(C7CCCC7)c6n5)nc4)CC3)C2)n1` (stereo not drawn) [CPD-278, 2-((3-((2-(4-(6-((6-acetyl-8-cyclopentyl-5-methyl-7-oxo-7,8-dihydropyrido[2,3-d]pyrimidin-2-yl)amino)pyridin-3-yl)piperazin-1-yl)acetamido)methyl)cyclobutyl)amino)-N-(2-cyclopropyl-1-methyl-1H-imidazol-4-yl)-6-((methyl-d3)amino)nicotinamide], the figures for the negative-log IC50 (pIC50) in assay [1] and in assay [2] were 7.30 to 8.00 and below 7.00, respectively.
For the compound `[2H]C([2H])([2H])Nc1ccc(C(=O)Nc2cn(C)c(C3CC3)n2)c(NC2CCC(NC(=O)CN3CCN(c4ccc(Nc5ncc6c(C)c(C(C)=O)c(=O)n(C7CCCC7)c6n5)nc4)CC3)C2)n1` (stereo not drawn) [CPD-285, 2-((3-(2-(4-(6-((6-acetyl-8-cyclopentyl-5-methyl-7-oxo-7,8-dihydropyrido[2,3-d]pyrimidin-2-yl)amino)pyridin-3-yl)piperazin-1-yl)acetamido)cyclopentyl)amino)-N-(2-cyclopropyl-1-methyl-1H-imidazol-4-yl)-6-((methyl-d3)amino)nicotinamide], the negative-log IC50 (pIC50) is 7.30 to 8.00 in assay [1] and below 7.00 in assay [2].
The like results for `CC(=O)c1c(C)c2cnc(Nc3ccc(N4CCN(C5CCN(C(=O)[C@H]6CC[C@H](Nc7nc(NC(C)C)ccc7-c7nc8cnc(N(C)C)cc8[nH]7)CC6)C5)CC4)cn3)nc2n(C2CCCC2)c1=O` (stereo partly drawn) [CPD-552, trans-6-acetyl-8-cyclopentyl-2-((5-(4-(1-(trans-4-((3-(6-(dimethylamino)-3H-imidazo[4,5-c]pyridin-2-yl)-6-(isopropylamino)pyridin-2-yl)amino)cyclohexane-1-carbonyl)pyrrolidin-3-yl)piperazin-1-yl)pyridin-2-yl)amino)-5-methylpyrido[2,3-d]pyrimidin-7(8H)-one] were, in that order, at most 7.30 and below 7.00.
For `CCN1CCc2cc(-c3nc(Nc4ccc(CN5CCN(CC(=O)NC6CC7(C6)CC(Nc6nc(NC(C)C)ccc6C(=O)Nc6ccc(N(C)C)nn6)C7)CC5)cn4)ncc3F)ccc2C1=O` (stereo not drawn) [CPD-554, N-(6-(dimethylamino)pyridazin-3-yl)-2-((6-(2-(4-((6-((4-(2-ethyl-1-oxo-1,2,3,4-tetrahydroisoquinolin-6-yl)-5-fluoropyrimidin-2-yl)amino)pyridin-3-yl)methyl)piperazin-1-yl)acetamido)spiro[3.3]heptan-2-yl)amino)-6-(isopropylamino)nicotinamide], the negative logarithm of the IC50 (pIC50) in assay [1] was at most 7.30; in assay [2], below 7.00.
